Measured values taken from ChEMBL document CHEMBL5532638, “Current development of 1,2,3-triazole derived potential antimalarial scaffolds: Structure- activity relationship (SAR) and bioactive compounds” (Eur J Med Chem, 2023).

tested on: Plasmodium falciparum; assay: Antiplasmodial activity against Plasmodium falciparum 3D7 infected in human red blood cells assessed as parasite growth inhibition incubated for 72 hrs by SYBR Green I staining based analysis; type: functional, organism-based, Red blood cell; details: 3D7, Erythrocyte

`CCOCc1cn(-c2ccc(Cl)cc2)nn1` and `CCOCc1cn(-c2cc(Cl)cc(Cl)c2)nn1` are the same in IC50: 2800 nM for the first, 2800 nM for the second.

`O=C(OCc1cnn(-c2ccccc2)n1)c1ccccc1` and `O=C(OCc1cn(-c2ccccc2)nn1)c1ccccc1` are the same in IC50: 2800 nM for the first, 2800 nM for the second.

`CCCOCc1cn(-c2cc(Cl)ccc2Cl)nn1` and `CCCOCc1cn(-c2cc(Cl)cc(Cl)c2)nn1` are the same in IC50: 2800 nM for the first, 2800 nM for the second.

`Clc1ccc(N/N=C/c2cnn(-c3ccccc3)n2)cc1` and `Fc1ccc(N/N=C/c2cnn(-c3ccccc3)n2)cc1` are the same in IC50: 2800 nM for the first, 2800 nM for the second.

Compared with `Clc1ccc(N/N=C/c2cn(-c3ccc(Cl)cc3)nn2)cc1`, `Fc1ccc(N/N=C/c2cn(-c3ccc(Cl)cc3)nn2)cc1` is 3-fold higher in IC50: 2800 nM for the first, 8450 nM for the second.

`Clc1cc(Cl)cc(-n2cc(/C=N/Nc3ccc(Br)cc3)nn2)c1` and `Cc1cccc(C)c1N/N=C/c1cn(-c2cc(Cl)cc(Cl)c2)nn1` are the same in IC50: 2800 nM for the first, 2800 nM for the second.

Going from `COc1ccc(-n2cc(/C=N/Nc3ccccc3)nn2)cc1` to `COc1ccc(-n2cc(/C=N/Nc3ccc(Cl)cc3)nn2)cc1`, the IC50 falls from 4440 nM to 2800 nM (1.6-fold). The second is the more potent here.

`O/N=C/c1cn(-c2cc(Cl)ccc2Cl)nn1` and `Clc1ccc(Cl)c(-n2cc(/C=N/Nc3c(Cl)cccc3Cl)nn2)c1` are the same in IC50: 2800 nM for the first, 2800 nM for the second.

`CCCCCCCCCC(=O)OCc1cn(-c2cc(Cl)cc(Cl)c2)nn1` and `CCCCCCCCCC(=O)OCc1cn(-c2ccc(OC)cc2)nn1` are the same in IC50: 2800 nM for the first, 2800 nM for the second.

First: Clc1ccc(-n2cc(/C=N/Nc3c(Cl)cccc3Cl)nn2)cc1
Second: Clc1cc(Cl)cc(-n2cc(/C=N/Nc3c(Cl)cccc3Cl)nn2)c1
The IC50 of the first is 2-fold lower: 2800 nM for the first, 5560 nM for the second.

`O=C(N/N=C/c1cnn(-c2ccccc2)n1)c1ccncc1` and `C(=N\Nc1ccccc1)/c1cnn(-c2ccccc2)n1` are the same in IC50: 2800 nM for the first, 2800 nM for the second.

First: CCOC(=O)c1cnn(-c2ccccc2)c1
Second: O=C(N/N=C/c1cn(-c2cc(Cl)cc(Cl)c2)nn1)c1ccncc1
The IC50 of the first is 2.5-fold lower: 2800 nM for the first, 6960 nM for the second.

`CCCCOCc1cn(-c2cc(Cl)cc(Cl)c2)nn1` gave an IC50 of 2800 nM.

tested on: Plasmodium falciparum; assay: Antiplasmodial activity against CQ-sensitive Plasmodium falciparum 3D7 assessed as parasite growth inhibition; type: functional, organism-based; details: not given

In the case of `O=C(Cn1cc(-c2ccccc2)nn1)c1ccccc1`, the IC50 is reported as 1290 nM.

tested on: Plasmodium falciparum; assay: Antiplasmodial activity against Plasmodium falciparum infected in O+ RBCs assessed as parasite growth inhibition incubated for 36 to 40 hrs by JSB staining based analysis; type: functional, organism-based, RBC; details: Plasmodium falciparum, Erythrocyte; read-out: IC50

`O=C(Cn1cc(CSc2ccc(Br)cc2)nn1)OCc1ccc(Cl)cc1` and `O=C(Cn1cc(CSc2ccc(Cl)cc2)nn1)OCc1ccc(Cl)cc1` are within 1.5-fold of each other in IC50: 203 nM for the first, 208 nM for the second.

`O=C(Cn1cc(CSc2ccc(Br)cc2)nn1)OCc1ccc([N+](=O)[O-])cc1` and `Cc1ccc(COC(=O)Cn2cc(CSc3ccc(Br)cc3)nn2)cc1` are within 1.5-fold of each other in IC50: 183 nM for the first, 178 nM for the second.

`Cc1ccc(COC(=O)Cn2cc(CSc3ccc(C)cc3)nn2)cc1` and `O=C(Cn1cc(CSc2ccc(Cl)cc2)nn1)OCc1ccccc1` are within 1.5-fold of each other in IC50: 204 nM for the first, 209 nM for the second.

With `O=C(Cn1cc(CSc2ccc3ccccc3c2)nn1)OCc1ccc([N+](=O)[O-])cc1` the IC50 was 207 nM.

same assay, conditions: rbc

Compared with `Cc1ccccc1COc1ccc(-n2cc(COc3cc(=O)oc4ccccc34)nn2)cc1`, `Cc1ccc(COc2ccc(-n3cc(COc4ccc5ccc(=O)oc5c4)nn3)cc2)cc1` is lower in IC50: 0.53 microg/cm3 for the first, 0.38 microg/cm3 for the second.

Going from `O=c1ccc2ccc(OCc3cn(-c4ccc(OCc5ccc(F)cc5)cc4)nn3)cc2o1` to `O=c1ccc2ccc(OCc3cn(-c4ccc(OCc5ccc(Br)cc5)cc4)nn3)cc2o1`, the IC50 rises from 0.49 microg/cm3 to 0.54 microg/cm3.

tested on: Plasmodium falciparum; assay: Antiplasmodial activity against Plasmodium falciparum K1 infected in O+ RBCs assessed as parasite growth inhibition incubated for 36 to 40 hrs by Geimsa staining based analysis; type: functional, organism-based, RBC; details: K1, Erythrocyte

`C=C[C@H]1CN2CC[C@H]1C[C@@H]2[C@@H](c1ccnc2ccc(OC)cc12)n1cc(CCCCCC)nn1` and `C=C[C@H]1CN2CC[C@H]1C[C@@H]2[C@@H](c1ccnc2ccc(OC)cc12)n1cc(CCCCCCCCCCCCCC)nn1` are the same in IC50: 280 nM for the first, 280 nM for the second.

`C=C[C@H]1CN2CC[C@H]1C[C@@H]2[C@@H](c1ccnc2ccc(OC)cc12)n1cc(C[C@H](N)C(=O)O)nn1` and `C=C[C@H]1CN2CC[C@H]1C[C@@H]2[C@@H](c1ccnc2ccc(OC)cc12)n1cc(CN2CCCC2C(=O)OCC)nn1` (stereo partly specified) are within 1.5-fold of each other in IC50: 250 nM for the first, 330 nM for the second.
